The test system of the test is female rabbit isolated heart. Briefly: Monophasic action potential duration (MAPD90) in female rabbit isolated heart. To be noted: ranolazine 0.1-100 μM. As to the method:
Each rabbit was sedated using intramuscular injections of 6 mg/kg xylazine and 40 mg/kg ketamine and then anesthetized using a “cocktail” of ketamine (15 mg/kg)+xylazine (4 mg/kg) in 1.5 ml saline. The ketamine/xylazine cocktail was administered as an i.v. bolus via the marginal ear vein. After anesthesia was confirmed, the thorax was opened and the heart was quickly excised. The heart was placed in a modified Krebs-Henseleit (K-H) physiological saline solution at room temperature. The K-H solution contained (in mmol/L): NaCl 118, KCl 2.8, KH2PO4 1.2, CaCl2 2.5, MgSO4 0.5, pyruvate 2.0, glucose 5.5, Na2EDTA 0.57 and NaHCO3 25. […] CPP was measured (with a Biopac MP 150 pressure transducer, Goleta, Calif.) from a side port of the aortic catheter. […]
Monophasic action potential (MAP) and ECG electrodes from Harvard Apparatus Inc. (Holliston, Mass.) were used to record heart rate (in beats per minute, or bpm), left ventricular MAPs and a bipolar ECG MAP electrodes were pressure contact Ag—AgCl cells attached to a circular holder with springs to keep the electrodes in contact with the LV epicardial surface. […] To ensure that each response to drug had achieved a steady state before a drug concentration was changed, the MAP duration (from onset of depolarization to 100% repolarization) was measured using an on-screen caliper throughout each drug infusion period. […]

As to `COc1ccccc1OCC(O)CN1CCN(CC(=O)Nc2c(C)cccc2C)CC1` (racemic) [Ranolazine, (±)-N-(2,6-dimethylphenyl)-4-[2-hydroxy-3-(2-methoxyphenoxy)-propyl]-1-piperazineacetamide], the “Increase in MAPD90” value is listed as 22±6%. Further, the MAPD90 (from 177±10) turned out to be 215 ± 6 ms.

Values taken from patent US9056108B2, “Method of treating atrial fibrillation” (Gilead Sciences, Inc., priority 2009, dated 2015).
